Experimental data as given in EP3820574B1, “3-(5-AMINO-1-OXOISOINDOLIN-2-YL)PIPERIDINE-2,6-DIONE DERIVATIVES AND THEIR USE IN THE TREATMENT OF IKAROS FAMILY ZINC FINGER 2 (IKZF2)-DEPENDENT DISEASES” (Novartis AG, priority 2018, dated 2020).

How the values were obtained:
IKZF1 = IKZF1 (Homo sapiens, UniProt Q13422+Q96SW2); assay: Prolabel quantification of IKZF1 protein levels in 293GT cells; conditions: read-out: IKZF1 EC50; Ikaros (IKZF1) degradation, prolabel-tagged fusion protein in 293GT cells; highest concentration 50 µM
Description: (§1) The Prolabel system from DiscoverX was used to develop high-throughput and quantitative assays to measure changes in IKZF1, IKZF2, and GSPT1 protein levels in response to compounds. […] The complementary fragment of beta-galactosidase (from DiscoverX), is added to the prolabel tag to form an active beta galactosidase enzyme whose activity can be precisely measured. In this way, the levels of a fusion protein with the prolabel tag can be quantified in cell lysates.
(§2) Lentiviral vectors, based on the Invitrogen pLenti6.2/V5 DEST backbone, were constructed that placed the prolabel tag upstream of IKZF1, IKZF2, or GSPT1 and expressed the fusion protein from a CMV promoter.
(§3) To ensure moderate and consistent expression of the prolabel fusion proteins across all cells in the population, stable cell lines were constructed from cells expressing a single copy of the construct. Lentivirus packaged with the constructs was made using the Virapower kit from Invitrogen.
(§4) The levels of prolabel tagged fusion proteins in compound treated cell lines were measured as follows: • Day 1, Cells were diluted to 1.0 x 10^6 cells/ml in normal growth medium. 17.5 µL of cells were plated in each well of a solid white 384 well plate. Plates were incubated overnight in a 37 °C tissue culture incubator. • Day 2, Serial dilutions of compounds were made in 384 well plates from 10 mM stocks. 15 µL of DMSO was added to each well of a 384 well plate. In the first column 15µL of stock compound was added. The solution was mixed and 15 µL was transferred to the next column. This was repeated until 20 two-fold dilutions were prepared. 2.5 µL of diluted compounds were transferred into 60 µL of cell culture medium in another 384 well plate, and mixed well. 2.5 µL of this mixture was added to the plated cells. The final DMSO concentration was 0.5% and the highest concentration of compound was 50 µM. Plates were incubated overnight (e.g., about 14 h, 18 h, or 24 h) in a 37 °C tissue culture incubator. • Day 3, Plates were removed from the incubator and allowed to equilibrate at rt for 30 minutes. Prolabel substrate (DiscoverX PathHunter Prolabel Detection Kit, User manual: 93-0180) was added as described by the manufacturers protocols. Plates were incubated at rt for three hours and luminescence was read using an Envision reader (Perkin Elmer) Data was analyzed and visualized using the Spotfire software package.

IKZF2 = IKZF2 (Homo sapiens, UniProt Q96SW2+Q9UKS7); assay: Prolabel quantification of IKZF2 protein levels in 293GT cells; conditions: for DC50: read-out: IKZF2 EC50, Helios (IKZF2) degradation, prolabel-tagged fusion protein in 293GT cells, highest concentration 50 µM; for inhibition at 10 µM: read-out: IKZF2 % protein reduction at 10 µM, 24 h
Description: as §1, §2, §3, §4

GSPT1 = GSPT1 (Homo sapiens, UniProt P15170+Q96SW2); conditions: read-out: GSPT1 EC50; GSPT1 degradation, prolabel-tagged fusion protein in 293GT cells; highest concentration 50 µM
Chain of GSPT1 (P15170 whole entry, the tested form may be a part): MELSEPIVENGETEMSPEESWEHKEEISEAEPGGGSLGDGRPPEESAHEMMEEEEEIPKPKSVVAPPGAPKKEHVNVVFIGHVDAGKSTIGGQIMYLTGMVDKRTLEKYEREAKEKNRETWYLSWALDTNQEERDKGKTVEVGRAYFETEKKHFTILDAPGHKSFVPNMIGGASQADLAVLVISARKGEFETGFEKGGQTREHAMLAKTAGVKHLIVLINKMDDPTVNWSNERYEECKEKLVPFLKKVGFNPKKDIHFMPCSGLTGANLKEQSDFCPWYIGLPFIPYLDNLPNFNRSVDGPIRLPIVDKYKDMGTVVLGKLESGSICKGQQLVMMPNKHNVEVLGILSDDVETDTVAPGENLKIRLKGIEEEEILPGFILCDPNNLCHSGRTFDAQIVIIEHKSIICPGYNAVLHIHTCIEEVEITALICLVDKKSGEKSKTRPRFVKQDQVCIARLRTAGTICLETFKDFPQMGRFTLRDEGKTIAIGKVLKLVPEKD
Chain of GSPT1 (Q96SW2 whole entry, the tested form may be a part): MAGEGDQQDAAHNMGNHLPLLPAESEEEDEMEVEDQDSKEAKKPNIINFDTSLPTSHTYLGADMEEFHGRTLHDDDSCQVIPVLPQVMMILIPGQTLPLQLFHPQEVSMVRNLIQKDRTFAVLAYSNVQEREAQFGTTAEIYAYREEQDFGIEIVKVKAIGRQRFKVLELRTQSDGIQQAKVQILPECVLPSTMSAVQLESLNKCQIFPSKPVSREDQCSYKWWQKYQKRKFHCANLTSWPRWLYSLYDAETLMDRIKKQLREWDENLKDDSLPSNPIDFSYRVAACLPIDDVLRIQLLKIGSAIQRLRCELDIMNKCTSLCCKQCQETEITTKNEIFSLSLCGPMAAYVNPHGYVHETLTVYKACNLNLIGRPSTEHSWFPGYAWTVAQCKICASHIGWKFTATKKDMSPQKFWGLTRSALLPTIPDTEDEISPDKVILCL
Chain of GSPT1 (Q16531 whole entry partner, the tested form may be a part): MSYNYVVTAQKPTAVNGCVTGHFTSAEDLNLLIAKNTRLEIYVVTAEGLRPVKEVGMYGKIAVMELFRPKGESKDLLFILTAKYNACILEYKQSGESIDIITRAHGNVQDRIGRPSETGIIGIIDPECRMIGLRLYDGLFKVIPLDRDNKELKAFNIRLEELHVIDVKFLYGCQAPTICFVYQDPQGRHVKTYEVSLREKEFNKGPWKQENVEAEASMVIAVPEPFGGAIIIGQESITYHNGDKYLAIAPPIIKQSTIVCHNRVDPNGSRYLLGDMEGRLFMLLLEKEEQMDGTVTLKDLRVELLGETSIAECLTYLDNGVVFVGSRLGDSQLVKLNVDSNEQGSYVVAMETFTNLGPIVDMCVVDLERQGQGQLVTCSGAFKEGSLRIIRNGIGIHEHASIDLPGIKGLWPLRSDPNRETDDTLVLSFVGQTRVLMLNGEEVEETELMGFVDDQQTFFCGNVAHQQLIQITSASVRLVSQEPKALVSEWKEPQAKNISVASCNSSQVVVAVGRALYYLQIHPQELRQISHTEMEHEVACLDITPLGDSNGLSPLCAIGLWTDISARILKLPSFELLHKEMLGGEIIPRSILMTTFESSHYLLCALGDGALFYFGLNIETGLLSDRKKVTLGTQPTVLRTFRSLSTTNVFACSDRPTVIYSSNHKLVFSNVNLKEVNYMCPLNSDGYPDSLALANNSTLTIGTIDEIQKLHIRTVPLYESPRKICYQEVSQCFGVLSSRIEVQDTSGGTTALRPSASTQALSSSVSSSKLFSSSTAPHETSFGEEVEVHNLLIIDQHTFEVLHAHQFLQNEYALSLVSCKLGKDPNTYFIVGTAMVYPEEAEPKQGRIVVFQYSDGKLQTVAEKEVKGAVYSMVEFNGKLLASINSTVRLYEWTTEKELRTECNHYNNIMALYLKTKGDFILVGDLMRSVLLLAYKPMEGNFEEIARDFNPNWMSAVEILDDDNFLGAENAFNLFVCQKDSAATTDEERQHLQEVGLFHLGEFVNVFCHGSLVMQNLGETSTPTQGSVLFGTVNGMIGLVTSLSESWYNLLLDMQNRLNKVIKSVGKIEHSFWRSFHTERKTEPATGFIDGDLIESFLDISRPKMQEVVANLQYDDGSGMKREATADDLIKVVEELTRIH
Description: as §1, §2, §3, §4

Chain of IKZF2 (Q9UKS7 whole entry, the tested form may be a part): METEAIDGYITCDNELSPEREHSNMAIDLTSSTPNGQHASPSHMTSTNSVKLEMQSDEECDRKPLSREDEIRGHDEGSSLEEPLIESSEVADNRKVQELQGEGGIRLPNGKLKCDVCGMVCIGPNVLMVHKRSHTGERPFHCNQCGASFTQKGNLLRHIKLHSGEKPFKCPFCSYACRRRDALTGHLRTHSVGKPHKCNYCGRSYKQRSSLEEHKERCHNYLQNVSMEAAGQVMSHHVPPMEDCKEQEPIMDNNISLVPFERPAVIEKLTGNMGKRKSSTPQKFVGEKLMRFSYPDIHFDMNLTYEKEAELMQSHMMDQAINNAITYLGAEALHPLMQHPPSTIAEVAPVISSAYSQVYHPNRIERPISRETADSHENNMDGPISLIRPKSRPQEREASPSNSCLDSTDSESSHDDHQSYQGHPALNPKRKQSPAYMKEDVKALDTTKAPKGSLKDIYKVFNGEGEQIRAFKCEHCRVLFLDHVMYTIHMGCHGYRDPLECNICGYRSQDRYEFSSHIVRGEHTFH
Chain of IKZF2 (Q96SW2 whole entry, the tested form may be a part): as the sequence (Q96SW2 whole entry, the tested form may be a part) above
Chain of IKZF2 (Q16531 whole entry partner, the tested form may be a part): as the sequence (Q16531 whole entry partner, the tested form may be a part) above
Chain of IKZF1 (Q13422 whole entry, the tested form may be a part): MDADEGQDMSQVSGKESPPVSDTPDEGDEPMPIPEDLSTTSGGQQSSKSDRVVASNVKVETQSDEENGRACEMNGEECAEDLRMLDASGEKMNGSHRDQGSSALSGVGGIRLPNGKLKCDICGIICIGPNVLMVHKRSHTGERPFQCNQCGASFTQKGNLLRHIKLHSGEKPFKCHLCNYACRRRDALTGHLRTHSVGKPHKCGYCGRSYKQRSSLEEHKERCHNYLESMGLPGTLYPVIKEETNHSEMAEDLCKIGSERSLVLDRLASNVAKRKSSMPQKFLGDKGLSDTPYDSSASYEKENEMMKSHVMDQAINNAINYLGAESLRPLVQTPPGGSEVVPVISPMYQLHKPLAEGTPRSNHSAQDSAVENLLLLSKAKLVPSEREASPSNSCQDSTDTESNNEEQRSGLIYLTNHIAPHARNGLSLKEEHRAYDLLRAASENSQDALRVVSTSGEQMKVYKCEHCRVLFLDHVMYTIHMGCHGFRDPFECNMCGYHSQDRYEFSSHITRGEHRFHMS
Chain of IKZF1 (Q96SW2 whole entry, the tested form may be a part): as the sequence (Q96SW2 whole entry, the tested form may be a part) above
Chain of IKZF1 (Q16531 whole entry partner, the tested form may be a part): as the sequence (Q16531 whole entry partner, the tested form may be a part) above

With CN[C@@H]1CCCC[C@H]1N(C)c1ccc2c(c1)CN(C1CCC(=O)NC1=O)C2=O (relative stereo) [Compound I-9, trans-3-(5-(methyl(-2-(methylamino)cyclohexyl)amino)-1-oxoisoindolin-2-yl)piperidine-2,6-dione] the DC50 (IKZF1) was greater than 50 µM, the “IKZF2 % protein reduction at 10 µM, 24 h” value (IKZF2; 10 µM, 24 h, 293GT cells) was 65% and the DC50 (IKZF2) was 113 nM. It also gave a DC50 (GSPT1) greater than 50 µM.

O=C1CCC(N2Cc3cc(N[C@H]4CCCC[C@@H]4O)ccc3C2=O)C(=O)N1 (stereo partly drawn) [Compound I-1, 3-(5-(((1S,2S)-2-hydroxycyclohexyl)amino)-1-oxoisoindolin-2-yl)piperidine-2,6-dione] gave a DC50 (IKZF1) greater than 30 µM, an inhibition at 10 µM (IKZF2; 24 h) of 20% and a DC50 (GSPT1) greater than 30 µM.

Work on CN[C@@H]1CCCC[C@H]1N(C)c1ccc2c(c1)CN(C1CCC(=O)NC1=O)C2=O (stereo partly drawn) [Compound I-2, 3-(5-(methyl((1R,2R)-2-(methylamino)cyclohexyl)amino)-1-oxoisoindolin-2-yl)piperidine-2,6-dione] yielded a DC50 (IKZF1) greater than 30 µM, an inhibition at 10 µM (IKZF2; 24 h) of 0% and a DC50 (IKZF2) greater than 30000 nM. It also gave a DC50 (GSPT1) greater than 30 µM.

O=C1CCC(N2Cc3cc(N[C@H]4CCCC[C@@H]4NCc4ccccc4)ccc3C2=O)C(=O)N1 (stereo partly drawn) [Compound I-3, 3-(5-(((1S,2S)-2-(benzylamino)cyclohexyl)amino)-1-oxoisoindolin-2-yl)piperidine-2,6-dione] showed a DC50 (IKZF1) greater than 30 µM, an inhibition at 10 µM (IKZF2; 24 h) of 65% and a DC50 (IKZF2) of 29 nM. The DC50 (GSPT1) was greater than 30 µM.

With O=C1CCC(N2Cc3cc(N[C@H]4CCCC[C@@H]4OCc4ccccc4)ccc3C2=O)C(=O)N1 (stereo partly drawn) [Compound I-4, 3-(5-(((1S,2S)-2-(benzyloxy)cyclohexyl)amino)-1-oxoisoindolin-2-yl)piperidine-2,6-dione] the DC50 (GSPT1) was greater than 30 µM.

With CN(Cc1ccccc1)[C@H]1CCCC[C@@H]1N(C)c1ccc2c(c1)CN(C1CCC(=O)NC1=O)C2=O (stereo partly drawn) [Compound I-6, 3-(5-(((1S,2S)-2-(benzyl(methyl)amino)cyclohexyl)(methyl)amino)-1-oxoisoindolin-2-yl)piperidine-2,6-dione] the DC50 (IKZF1) was greater than 50 µM, the inhibition at 10 µM (IKZF2; 24 h) was 65% and the DC50 (IKZF2) was 43 nM.

N[C@H]1CCCC[C@@H]1Nc1ccc2c(c1)CN(C1CCC(=O)NC1=O)C2=O (stereo partly drawn) [Compound I-7, 3-(5-(((1S,2S)-2-aminocyclohexyl)amino)-1-oxoisoindolin-2-yl)piperidine-2,6-dione] gave a DC50 (IKZF1) greater than 50 µM, an inhibition at 10 µM (IKZF2; 24 h) of 30% and a DC50 (IKZF2) of 183 nM.

CN[C@H]1CCCC[C@@H]1N(C)c1ccc2c(c1)CN(C1CCC(=O)NC1=O)C2=O (stereo partly drawn) [Compound I-8, 3-(5-(methyl((1S,2S)-2-(methylamino)cyclohexyl)amino)-1-oxoisoindolin-2-yl)piperidine-2,6-dione] was tested, and the DC50 (IKZF1) was greater than 50 µM, the inhibition at 10 µM (IKZF2; 24 h) was 65% and the DC50 (IKZF2) was 103 nM. For the same molecule, the DC50 (GSPT1) was greater than 50 µM.

With CN[C@H]1CCCC[C@@H]1Nc1ccc2c(c1)CN(C1CCC(=O)NC1=O)C2=O (stereo partly drawn) [Compound I-10, 3-(5-(((1S,2S)-2-(methylamino)cyclohexyl)amino)-1-oxoisoindolin-2-yl)piperidine-2,6-dione] the DC50 (IKZF1) was greater than 30 µM, the inhibition at 10 µM (IKZF2; 24 h) was 50% and the DC50 (IKZF2) was 990 nM. For the same molecule, the DC50 (GSPT1) was greater than 50 µM.

Work on O=C1CCC(N2Cc3cc(N[C@H]4CCCC[C@@H]4NCC4CCCCC4)ccc3C2=O)C(=O)N1 (stereo partly drawn) [Compound I-12, 3-(5-(((1S,2S)-2-((cyclohexylmethyl)amino)cyclohexyl)amino)-1-oxoisoindolin-2-yl)piperidine-2,6-dione] yielded a DC50 (IKZF1) greater than 30 µM, an inhibition at 10 µM (IKZF2; 24 h) of 65% and a DC50 (IKZF2) of 36 nM.

Molecule O=C1CCC(N2Cc3cc(N[C@H]4CCC[C@@H]4N4CCCCC4)ccc3C2=O)C(=O)N1 (stereo partly drawn) [Compound I-14, 3-(1-oxo-5-(((1S,2S)-2-(piperidin-1-yl)cyclopentyl)amino)isoindolin-2-yl)piperidine-2,6-dione] has a DC50 (IKZF1) greater than 30 µM, an inhibition at 10 µM (IKZF2; 24 h) of 40% and a DC50 (IKZF2) of 730 nM.

In the case of CC(C)CN[C@H]1CCCC[C@@H]1Nc1ccc2c(c1)CN(C1CCC(=O)NC1=O)C2=O (stereo partly drawn) [Compound I-15, 3-(5-(((1S,2S)-2-(isobutylamino)cyclohexyl)amino)-1-oxoisoindolin-2-yl)piperidine-2,6-dione], the DC50 (IKZF1) is reported as greater than 30 µM, the inhibition at 10 µM (IKZF2; 24 h) is reported as 60% and the DC50 (IKZF2) is reported as 94 nM.

CCN[C@H]1CCCC[C@@H]1Nc1ccc2c(c1)CN(C1CCC(=O)NC1=O)C2=O (stereo partly drawn) [Compound I-40, 3-(5-(((1S,2S)-2-(ethylamino)cyclohexyl)amino)-1-oxoisoindolin-2-yl)piperidine-2,6-dione] gave a DC50 (IKZF1) greater than 30 µM, an inhibition at 10 µM (IKZF2; 24 h) of 45% and a DC50 (IKZF2) of 1670 nM.

In the case of CC(C)N[C@H]1CCCC[C@@H]1Nc1ccc2c(c1)CN(C1CCC(=O)NC1=O)C2=O (stereo partly drawn) [Compound I-45, 3-(5-(((1S,2S)-2-(isopropylamino)cyclohexyl)amino)-1-oxoisoindolin-2-yl)piperidine-2,6-dione], the DC50 (IKZF1) is reported as greater than 30 µM, the inhibition at 10 µM (IKZF2; 24 h) is reported as 70% and the DC50 (IKZF2) is reported as 100 nM. For the same molecule, the DC50 (GSPT1) was greater than 50 µM.

For CCN[C@H]1CCCC[C@@H]1N(CC)c1ccc2c(c1)CN(C1CCC(=O)NC1=O)C2=O (stereo partly drawn) [Compound I-55, 3-(5-(ethyl((1S,2S)-2-(ethylamino)cyclohexyl)amino)-1-oxoisoindolin-2-yl)piperidine-2,6-dione], the DC50 (IKZF1) was greater than 30 µM and the inhibition at 10 µM (IKZF2; 24 h) was 10%.

CN(C)[C@H]1CCCC[C@@H]1N(C)c1ccc2c(c1)C(=O)N(C1CCC(=O)NC1=O)C2=O (stereo partly drawn) [Compound I-96, 5-(((1S,2S)-2-(dimethylamino)cyclohexyl)(methyl)amino)-2-(2,6-dioxopiperidin-3-yl)isoindoline-1,3-dione] showed a DC50 (IKZF1) of 2.37 µM, an inhibition at 10 µM (IKZF2; 24 h) of 50% and a DC50 (IKZF2) of 1570 nM. For the same molecule, the DC50 (GSPT1) was greater than 50 µM.

For CN(c1ccc2c(c1)C(=O)N(C1CCC(=O)NC1=O)C2=O)[C@H]1CCCC[C@@H]1N (stereo partly drawn) [Compound I-99, 5-(((1S,2S)-2-aminocyclohexyl)(methyl)amino)-2-(2,6-dioxopiperidin-3-yl)isoindoline-1,3-dione], the DC50 (IKZF1) was 5.2 µM, the inhibition at 10 µM (IKZF2; 24 h) was 70% and the DC50 (IKZF2) was 150 nM. The DC50 (GSPT1) was greater than 50 µM.

CCN[C@H]1CCCC[C@@H]1N(C)c1ccc2c(c1)C(=O)N(C1CCC(=O)NC1=O)C2=O (stereo partly drawn) [Compound I-104, 2-(2,6-dioxopiperidin-3-yl)-5-(((1S,2S)-2-(ethylamino)cyclohexyl)(methyl)amino)isoindoline-1,3-dione] gave a DC50 (IKZF1) of 0.051 µM, an inhibition at 10 µM (IKZF2; 24 h) of 80% and a DC50 (IKZF2) of 49 nM. It also gave a DC50 (GSPT1) greater than 50 µM.

For CN[C@H]1CCCCC[C@@H]1N(C)c1ccc2c(c1)C(=O)N(C1CCC(=O)NC1=O)C2=O (stereo partly drawn) [Compound I-109, 2-(2,6-dioxopiperidin-3-yl)-5-(methyl((1S,2S)-2-(methylamino)cycloheptyl)amino)isoindoline-1,3-dione], the DC50 (IKZF1) was greater than 30 µM, the inhibition at 10 µM (IKZF2; 24 h) was 70% and the DC50 (IKZF2) was 230 nM. For the same molecule, the DC50 (GSPT1) was greater than 50 µM.

CN[C@H]1CCCC[C@@H]1N(C)c1ccc2c(c1)C(=O)N(C1CCC(=O)NC1=O)C2=O (stereo partly drawn) [Compound I-114, 2-(2,6-dioxopiperidin-3-yl)-5-(methyl((1S,2S)-2-(methylamino)cyclohexyl)amino)isoindoline-1,3-dione] showed a DC50 (IKZF1) of 0.29 µM, an inhibition at 10 µM (IKZF2; 24 h) of 70% and a DC50 (IKZF2) of 24 nM. It also gave a DC50 (GSPT1) greater than 50 µM.

CN[C@H]1CCC[C@@H]1N(C)c1ccc2c(c1)C(=O)N(C1CCC(=O)NC1=O)C2=O (stereo partly drawn) [Compound I-128, 2-(2,6-dioxopiperidin-3-yl)-5-(methyl((1S,2S)-2-(methylamino)cyclopentyl)amino) isoindoline-1,3-dione] gave a DC50 (IKZF1) greater than 30 µM, an inhibition at 10 µM (IKZF2; 24 h) of 30% and a DC50 (IKZF2) greater than 30000 nM.

Work on CN(c1ccc2c(c1)C(=O)N(C1CCC(=O)NC1=O)C2=O)[C@H]1CCCC[C@@H]1NCc1ccccc1 (stereo partly drawn) [Compound I-133, 5-(((1S,2S)-2-(benzylamino)cyclohexyl)(methyl)amino)-2-(2,6-dioxopiperidin-3-yl)isoindoline-1,3-dione] yielded a DC50 (IKZF1) greater than 30 µM, an inhibition at 10 µM (IKZF2; 24 h) of 75% and a DC50 (IKZF2) of 450 nM.

In the case of CN(c1ccc2c(c1)C(=O)N(C1CCC(=O)NC1=O)C2=O)[C@H]1CCCC[C@@H]1NCC1(C(F)(F)F)CC1 (stereo partly drawn) [Compound I-138, 2-(2,6-dioxopiperidin-3-yl)-5-(methyl((1S,2S)-2-(((1-(trifluoromethyl)cyclopropyl)methyl)amino)cyclohexyl)amino)isoindoline-1,3-dione], the DC50 (IKZF1) is reported as greater than 30 µM and the inhibition at 10 µM (IKZF2; 24 h) is reported as 30%.

CN(c1ccc2c(c1)C(=O)N(C1CCC(=O)NC1=O)C2=O)[C@H]1CCCC[C@@H]1NCc1cccnc1 (stereo partly drawn) [Compound I-143, 2-(2,6-dioxopiperidin-3-yl)-5-(methyl((1S,2S)-2-((pyridin-3-ylmethyl)amino)cyclohexyl)amino)isoindoline-1,3-dione] was tested, and the DC50 (IKZF1) was greater than 30 µM, the inhibition at 10 µM (IKZF2; 24 h) was 40% and the DC50 (IKZF2) was 23100 nM.

Work on CN(c1ccc2c(c1)C(=O)N(C1CCC(=O)NC1=O)C2=O)[C@H]1CCCC[C@@H]1NCC(=O)O (stereo partly drawn) [Compound I-148, ((1S,2S)-2-((2-(2,6-dioxopiperidin-3-yl)-1,3-dioxoisoindolin-5-yl)(methyl)amino)cyclohexyl)glycine] yielded a DC50 (IKZF1) greater than 30 µM, an inhibition at 10 µM (IKZF2; 24 h) of 40% and a DC50 (IKZF2) of 11300 nM.

Molecule CN(C)[C@H]1CCCC[C@@H]1Nc1ccc2c(c1)C(=O)N(C1CCC(=O)NC1=O)C2=O (stereo partly drawn) [Compound I-153, 5-(((1S,2S)-2-(dimethylamino)cyclohexyl)amino)-2-(2,6-dioxopiperidin-3-yl)isoindoline-1,3-dione] has a DC50 (IKZF1) greater than 30 µM, an inhibition at 10 µM (IKZF2; 24 h) of 50% and a DC50 (IKZF2) of 410 nM. It also gave a DC50 (GSPT1) greater than 50 µM.

CN[C@H]1CCCC[C@@H]1N(C)c1ccc2c(c1F)CN(C1CCC(=O)NC1=O)C2=O (stereo partly drawn) [Compound I-163, 3-(4-fluoro-5-(methyl((1S,2S)-2-(methylamino)cyclohexyl)amino)-1-oxoisoindolin-2-yl)piperidine-2,6-dione] showed a DC50 (IKZF1) of 0.57 µM, an inhibition at 10 µM (IKZF2; 24 h) of 80% and a DC50 (IKZF2) of 66 nM.
